This is an account of results in US20250368649A1, “TETRAHYDROPYRIDOPYRIMIDINE PAN-KRAS INHIBITORS” (Mirati Therapeutics, Inc., priority 2022, published 2025).

Molecules are shown by their SMILES. Some results are limits rather than exact numbers.

As usually defined, the inhibition is the relative decrease from the control value, in per cent. For orientation: IC50 means the concentration needed to halve the response being measured.

The target in one experiment is KRas WT (Homo sapiens, UniProt P01116). The experiment can be described thus: KRas binding assay (TR-FRET displacement), KRas WT. The following applies: single point, 10 nM compound. On the technique in general: In TR-FRET formats the signal depends on donor and acceptor labels being close together.
The next experiment deals with KRas G12A (Homo sapiens, UniProt P01116, G12A). In kind it is binding. The following applies: single point, 10 nM compound, read-out: Binding to KRas (% inhibition at 10 nM) G12A.
In a further experiment the target is KRas G12C (Homo sapiens, UniProt P01116, G12C). In kind it is binding. The following applies: single point, 10 nM compound, read-out: Binding to KRas (% inhibition at 10 nM) G12C.
For a further experiment, the target named is KRas G12S (Homo sapiens, UniProt P01116, G12S). In kind it is binding. The following applies: single point, 10 nM compound, read-out: Binding to KRas (% inhibition at 10 nM) G12S.
The next experiment addresses KRas G13D (Homo sapiens, UniProt P01116, G13D). In kind it is binding. The following applies: single point, 10 nM compound, read-out: Binding to KRas (% inhibition at 10 nM) G13D.
The target in the next experiment is KRas Q61H (Homo sapiens, UniProt P01116, Q61H). The experiment can be described thus: KRas binding assay (TR-FRET displacement), KRas Q61H. To be noted: single point, 10 nM compound.
Another experiment relates to MKN1 cells. The experiment can be described thus: Inhibition of KRas-mediated phosphorylation of ERK (Cisbio HTRF pERK), MKN1 cells. In kind it is cell-based. The following applies: Homo sapiens, MKN-1, 3 hour compound incubation, Cisbio pERK HTRF. Put shortly:
(§1)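 Growth medium is RPMI with 10% FBS, and each well receives 6,000 cells on the first day of the protocol.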

The subject of a further experiment is PSN1 cells. The experiment can be described thus: Inhibition of KRas-mediated phosphorylation of ERK (Cisbio HTRF pERK), PSN1 cells. In kind it is cell-based. The following applies: Homo sapiens, PSN1, 3 h, 3 hour compound incubation, Cisbio pERK HTRF. Put shortly:
as §1

The subject of the next experiment is ASPC1 cells. The experiment can be described thus: Inhibition of KRas-mediated phosphorylation of ERK (Cisbio HTRF pERK), ASPC1 cells. In kind it is cell-based. To be noted: Homo sapiens, AsPC-1 cells; for IC50: ASPC1, 3 h, 3 hr compound incubation, Cisbio pERK HTRF; for inhibition at 0.1 µM: ASPC1, single point at 100 nM, 3 hrs compound incubation.
The subject of a further experiment is H727 cells. Briefly: Inhibition of KRas-mediated phosphorylation of ERK (Cisbio HTRF pERK), H727 cells. In kind it is cell-based. To be noted: Homo sapiens; for IC50: NCI-H727, 3 h, 3 hr compound incubation, Cisbio pERK HTRF; for inhibition at 0.1 µM: NCI-H727, single point at 100 nM, 3 hrs compound incubation.
The subject of another experiment is A549 cells. The experiment can be described thus: Inhibition of KRas-mediated phosphorylation of ERK (Cisbio HTRF pERK), A549 cells. To be noted: Homo sapiens; for IC50: A549, 3 h, 3 hr compound incubation, Cisbio pERK HTRF; for inhibition at 0.1 µM: single point at 100 nM, 3 hrs compound incubation. In kind it is cell-based.
For a further experiment, the system named is H460 cells. Briefly: Inhibition of KRas-mediated phosphorylation of ERK (Cisbio HTRF pERK), H460 cells. In kind it is cell-based. The following applies: Homo sapiens, NCI-H460, 3 h, 3 hr compound incubation, Cisbio pERK HTRF.
In another experiment the test system is HCT116 cells. The experiment can be described thus: Inhibition of KRas-mediated phosphorylation of ERK (Cisbio HTRF pERK), HCT116 cells. In kind it is cell-based. The following applies: Homo sapiens, HCT-116, 3 h, 3 hr compound incubation, Cisbio pERK HTRF.
For the next experiment, the system named is H358 cells. The experiment can be described thus: Inhibition of KRas-mediated phosphorylation of ERK (Cisbio HTRF pERK), H358 cells. In kind it is cell-based. To be noted: Homo sapiens; for IC50: NCI-H358, 3 h, 3 hr compound incubation, Cisbio pERK HTRF; for inhibition at 0.1 µM: NCI-H358, single point at 100 nM, 3 hrs compound incubation.
A further experiment has as its target KRas G12D (Homo sapiens, UniProt P01116, G12D). The experiment can be described thus: biochemical. To be noted: Binding to KRas (IC50 nM) G12D, TR-FRET displacement, KRas G12D.
The target of a further experiment is KRas G12R (Homo sapiens, UniProt P01116, G12R). The experiment can be described thus: biochemical. The following applies: Binding to KRas (IC50 nM) G12R, TR-FRET displacement, KRas G12R.
The target of the next experiment is KRas G12V (Homo sapiens, UniProt P01116, G12V). Briefly: biochemical. The following applies: Binding to KRas (IC50 nM) G12V, TR-FRET displacement, KRas G12V.
KRas G12V, sequence (P01116 1-169 isoform P01116-2 G12V): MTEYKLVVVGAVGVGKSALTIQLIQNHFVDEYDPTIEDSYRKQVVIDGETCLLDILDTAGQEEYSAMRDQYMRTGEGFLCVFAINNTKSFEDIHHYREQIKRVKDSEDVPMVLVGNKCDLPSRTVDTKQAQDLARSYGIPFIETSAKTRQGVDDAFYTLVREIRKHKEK

KRas G13D, sequence (P01116 1-169 isoform P01116-2 G13D): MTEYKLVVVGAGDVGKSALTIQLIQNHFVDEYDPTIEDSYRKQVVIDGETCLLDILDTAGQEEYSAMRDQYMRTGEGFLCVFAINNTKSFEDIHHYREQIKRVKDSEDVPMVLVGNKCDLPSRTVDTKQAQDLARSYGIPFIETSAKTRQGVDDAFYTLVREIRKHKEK
KRas WT, sequence (P01116 1-169 isoform P01116-2): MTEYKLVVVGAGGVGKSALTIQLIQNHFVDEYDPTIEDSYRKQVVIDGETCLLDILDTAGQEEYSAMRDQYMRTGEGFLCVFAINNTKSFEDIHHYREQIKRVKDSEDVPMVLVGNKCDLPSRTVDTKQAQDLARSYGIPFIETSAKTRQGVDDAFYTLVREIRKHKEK
KRas G12C, sequence (P01116 1-169 isoform P01116-2 G12C): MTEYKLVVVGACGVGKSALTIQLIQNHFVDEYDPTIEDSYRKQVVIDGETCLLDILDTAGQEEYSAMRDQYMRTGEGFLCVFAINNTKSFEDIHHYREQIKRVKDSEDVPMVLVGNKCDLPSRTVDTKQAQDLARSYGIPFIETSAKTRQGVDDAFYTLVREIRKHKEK
KRas G12S, sequence (P01116 1-169 isoform P01116-2 G12S): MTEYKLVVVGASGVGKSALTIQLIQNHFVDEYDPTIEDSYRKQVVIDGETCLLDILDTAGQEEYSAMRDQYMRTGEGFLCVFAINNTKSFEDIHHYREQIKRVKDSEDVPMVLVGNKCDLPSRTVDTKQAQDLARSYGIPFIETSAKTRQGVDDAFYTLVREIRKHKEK
KRas G12R, sequence (P01116 1-169 isoform P01116-2 G12R): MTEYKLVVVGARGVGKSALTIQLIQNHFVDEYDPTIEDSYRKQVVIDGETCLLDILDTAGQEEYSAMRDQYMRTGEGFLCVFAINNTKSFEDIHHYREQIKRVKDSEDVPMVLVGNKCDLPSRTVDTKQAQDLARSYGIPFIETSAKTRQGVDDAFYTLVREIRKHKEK
KRas G12A, sequence (P01116 1-169 isoform P01116-2 G12A): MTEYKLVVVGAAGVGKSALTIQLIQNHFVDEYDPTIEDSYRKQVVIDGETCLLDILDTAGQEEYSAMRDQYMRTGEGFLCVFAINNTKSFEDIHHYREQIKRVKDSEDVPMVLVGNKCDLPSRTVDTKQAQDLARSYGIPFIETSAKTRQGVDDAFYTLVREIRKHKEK
KRas Q61H, sequence (P01116 1-169 isoform P01116-2 Q61H): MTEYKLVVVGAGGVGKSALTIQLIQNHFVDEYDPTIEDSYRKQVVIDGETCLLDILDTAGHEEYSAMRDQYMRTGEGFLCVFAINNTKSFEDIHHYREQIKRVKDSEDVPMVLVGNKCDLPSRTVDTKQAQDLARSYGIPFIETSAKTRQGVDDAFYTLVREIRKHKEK
KRas G12D, sequence (P01116 1-169 isoform P01116-2 G12D): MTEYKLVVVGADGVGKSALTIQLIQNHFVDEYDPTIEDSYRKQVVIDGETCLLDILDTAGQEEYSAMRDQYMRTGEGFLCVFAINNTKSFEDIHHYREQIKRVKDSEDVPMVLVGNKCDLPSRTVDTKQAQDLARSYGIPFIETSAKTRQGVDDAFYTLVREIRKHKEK

Turning to `CCc1c(F)ccc2cc(O)cc(N3CCc4c(nc(OC[C@@]56CCCN5C[C@H](F)C6)nc4N4CCCn5nc(C(=O)N(C)CCOC)cc5C4)C3)c12` [Example 382, 5-(7-(8-ethyl-7-fluoro-3-hydroxynaphthalen-1-yl)-2-(((2R,7aS)-2-fluorohexahydro-1H-pyrrolizin-7a-yl)methoxy)-5,6,7,8-tetrahydropyrido[3,4-d]pyrimidin-4-yl)-N-(2-methoxyethyl)-N-methyl-5,6,7,8-tetrahydro-4H-pyrazolo[1,5-a][1,4]diazepine-2-carboxamide], the inhibition at 0.01 µM on KRas WT came to 97%; at KRas G12A, 98%; at KRas G12C, 100%; at KRas G12S, 99%; on KRas G13D, 98%; at KRas Q61H it was 97%. Moreover, the IC50 in the experiment on MKN1 cells worked out at 8.4 nM; with PSN1 cells, 2290 nM; with ASPC1 cells it was 2 nM; in the experiment with H727 cells, 4 nM; in the experiment on A549 cells, 15 nM; with H460 cells, 25 nM. Moreover, the IC50 is 51 nM with HCT116 cells; 1 nM with H358 cells; less than 2 nM at KRas G12D; less than 2 nM at KRas G12R; less than 2 nM at KRas G12V. The inhibition at 0.1 µM in the experiment on A549 cells stood at 80%; in the experiment with H358 cells, 99%.
For the compound `CCc1c(F)ccc2cc(O)cc(N3CCc4c(nc(OC[C@@]56CCCN5C[C@H](F)C6)nc4N4CCCn5nc(C(=O)N(C)C6CC6)cc5C4)C3)c12` [Example 383, N-cyclopropyl-5-(7-(8-ethyl-7-fluoro-3-hydroxynaphthalen-1-yl)-2-(((2R,7aS)-2-fluorohexahydro-1H-pyrrolizin-7a-yl)methoxy)-5,6,7,8-tetrahydropyrido[3,4-d]pyrimidin-4-yl)-N-methyl-5,6,7,8-tetrahydro-4H-pyrazolo[1,5-a][1,4]diazepine-2-carboxamide], the inhibition at 0.01 µM on KRas WT came to 97%; on KRas G12A, 96%; at KRas G12C, 99%; at KRas G12S, 99%; on KRas G13D, 97%; at KRas Q61H it was 98%. In addition, the IC50 in the experiment with MKN1 cells is 7.8 nM; in the experiment with PSN1 cells, 3680 nM; in the experiment on ASPC1 cells, 1 nM; in the experiment on H727 cells it was 2 nM; in the experiment on A549 cells it was 5 nM; with H460 cells it was 13 nM. Moreover, the IC50 with HCT116 cells was 73 nM; in the experiment on H358 cells, 2 nM; on KRas G12D, less than 2 nM; at KRas G12R, less than 2 nM; at KRas G12V it was less than 2 nM. The inhibition at 0.1 µM in the experiment with ASPC1 cells stood at 97%; in the experiment on H727 cells, 85%; in the experiment with A549 cells, 90%; in the experiment with H358 cells, 98%.
As for `CCc1c(F)ccc2cc(O)cc(N3CCc4c(nc(OC[C@@]56CCCN5C[C@H](F)C6)nc4N4CCCn5nc(C(=O)NC6CC6)cc5C4)C3)c12` [Example 384, N-cyclopropyl-5-(7-(8-ethyl-7-fluoro-3-hydroxynaphthalen-1-yl)-2-(((2R,7aS)-2-fluorohexahydro-1H-pyrrolizin-7a-yl)methoxy)-5,6,7,8-tetrahydropyrido[3,4-d]pyrimidin-4-yl)-5,6,7,8-tetrahydro-4H-pyrazolo[1,5-a][1,4]diazepine-2-carboxamide], the inhibition at 0.01 µM on KRas WT worked out at 94%; at KRas G12A, 91%; at KRas G12C, 99%; on KRas G12S, 98%; on KRas G13D, 93%; at KRas Q61H it was 95%. Also, the IC50 was 9 nM with MKN1 cells; 3880 nM in the experiment with PSN1 cells; 2 nM with ASPC1 cells; 6 nM in the experiment on H727 cells; 17 nM in the experiment on A549 cells; 25 nM with H460 cells. Also, the half-inhibitory concentration (IC50) in the experiment on HCT116 cells was 91 nM; in the experiment with H358 cells, 5 nM; at KRas G12D, less than 2 nM; at KRas G12R it was less than 2 nM; at KRas G12V it was less than 2 nM. Moreover, the inhibition at 0.1 µM amounted to 98% with ASPC1 cells, 79% in the experiment on H727 cells, 65% in the experiment with A549 cells and 100% in the experiment on H358 cells.
Turning to `CCc1c(F)ccc2cc(O)cc(N3CCc4c(nc(OC[C@@]56CCCN5C[C@H](F)C6)nc4N4CCCn5nc(C(=O)N(C)C6CCC6)cc5C4)C3)c12` [Example 385, N-cyclobutyl-5-(7-(8-ethyl-7-fluoro-3-hydroxynaphthalen-1-yl)-2-(((2R,7aS)-2-fluorohexahydro-1H-pyrrolizin-7a-yl)methoxy)-5,6,7,8-tetrahydropyrido[3,4-d]pyrimidin-4-yl)-N-methyl-56,7,8-tetrahydro-4H-pyrazolo[1,5-a][1,4]diazepine-2-carboxamide], the inhibition at 0.01 µM at KRas WT is 95%; at KRas G12A, 96%; at KRas G12C, 98%; at KRas G12S it was 98%; on KRas G13D, 94%; on KRas Q61H, 96%. The IC50 turned out to be 14.4 nM in the experiment on MKN1 cells; 3980 nM in the experiment with PSN1 cells; 3 nM in the experiment with ASPC1 cells; 5 nM in the experiment on H727 cells; 15 nM in the experiment on A549 cells; 22 nM in the experiment on H460 cells. Moreover, the half-inhibitory concentration (IC50) was 85 nM in the experiment on HCT116 cells; 2 nM in the experiment with H358 cells; less than 2 nM on KRas G12D; less than 2 nM on KRas G12R; less than 2 nM on KRas G12V. The values for the inhibition at 0.1 µM in the experiment with A549 cells and in the experiment on H358 cells were 74% and 94%, respectively.
Consider `CCc1c(F)ccc2cc(O)cc(N3CCc4c(nc(OC[C@@]56CCCN5C[C@H](F)C6)nc4N4CCCn5nc(C(=O)NC(C)C)c(Cl)c5C4)C3)c12` [Example 386, 3-chloro-5-(7-(8-ethyl-7-fluoro-3-hydroxynaphthalen-1-yl)-2-(((2R,7aS)-2-fluorotetrahydro-1H-pyrrolizin-7a(5H)-yl)methoxy)-5,6,7,8-tetrahydropyrido[3,4-d]pyrimidin-4-yl)-N-isopropyl-5,6,7,8-tetrahydro-4H-pyrazolo[1,5-a][1,4]diazepine-2-carboxamide], for which the inhibition at 0.01 µM on KRas WT turned out to be 95%; at KRas G12A it was 92%; at KRas G12C, 99%; on KRas G12S, 98%; at KRas G13D it was 96%; on KRas Q61H, 97%. For the same compound, the IC50 stood at 11.3 nM in the experiment on MKN1 cells; 2710 nM in the experiment on PSN1 cells; 1 nM in the experiment with ASPC1 cells; 2 nM with H727 cells; 4 nM in the experiment on A549 cells; 19 nM in the experiment on H460 cells. For the same compound, the IC50 in the experiment with HCT116 cells is 39 nM; in the experiment on H358 cells, 1 nM; at KRas G12D, less than 2 nM; on KRas G12R, less than 2 nM; on KRas G12V, less than 2 nM. For the same compound, the figures for the inhibition at 0.1 µM in the experiment on A549 cells and with H358 cells were 88% and 91%, respectively.
